Experimental data taken from patent publication US20220281848A1, “PYRAZOLE-SUBSTITUTED PYRROLIDINONES AS HERBICIDES” (FMC Corporation, priority 2019, published 2022).

Test system: plants
Test: Test D pre-emergence, other plants of Tables D1 and D3
Type: in vivo
Settings: for damage to plant (100=total damage to plant; 0=no damage to plant), SORVU: preemergent, 20 DAA; for damage to plant, ALOMY / damage to plant, AVEFA / damage to plant, BEAVA / damage to plant, BROTE / damage to plant, BRSNN / damage to plant, CHEAL / damage to plant, GALAP / damage to plant, HORVW / damage to plant, KCHSC / damage to plant, LOLPE / damage to plant, POAAN / damage to plant, POLCO / damage to plant, SINAR / damage to plant, STEME / damage to plant, VERPE: pre-emergence, 100=total damage, 0=no damage
Method in brief: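 Seeds treated with herbicide safener; sown in soil; glasshouse, 16 h light, 65% humidity. Sprayed day 1 (pre) or ~day 12 (post). Spray in 0.2% v/v adjuvant. Scored 0–100 damage: 20 DAA pre, 15 d post.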

## CN1C[C@H](c2nn(C)c3c(F)cccc23)[C@@H](C(=O)Nc2cccc(F)c2F)C1=O [Compound 2]
Rate 130
  damage to plant (100=total damage to plant; 0=no damage to plant), SORVU: 0
Rate 250
  damage to plant (100=total damage to plant; 0=no damage to plant), SORVU: 0
Rate 500
  damage to plant (100=total damage to plant; 0=no damage to plant), SORVU: 0
Rate 15, 20 DAA
  damage to plant, ALOMY: 0
  damage to plant, AVEFA: 0
  damage to plant, BEAVA: 0
  damage to plant, BROTE: 0
  damage to plant, BRSNN: 0
  damage to plant, CHEAL: 0
  damage to plant, GALAP: 0
  damage to plant, HORVW: 0
  damage to plant, KCHSC: 0
  damage to plant, LOLPE: 0
  damage to plant, POAAN: 0
  damage to plant, POLCO: 0
  damage to plant, SINAR: 0
  damage to plant, STEME: 0
  damage to plant, VERPE: 0
Rate 30, 20 DAA
  damage to plant, ALOMY: 0
  damage to plant, AVEFA: 0
  damage to plant, BEAVA: 0
  damage to plant, BROTE: 0
  damage to plant, BRSNN: 0
  damage to plant, CHEAL: 0
  damage to plant, GALAP: 0
  damage to plant, HORVW: 0
  damage to plant, KCHSC: 0
  damage to plant, LOLPE: 0
  damage to plant, POAAN: 0
  damage to plant, POLCO: 0
  damage to plant, SINAR: 0
  damage to plant, STEME: 0
  damage to plant, VERPE: 0
Rate 60, 20 DAA
  damage to plant, ALOMY: 0
  damage to plant, AVEFA: 0
  damage to plant, BEAVA: 0
  damage to plant, BROTE: 0
  damage to plant, BRSNN: 0
  damage to plant, CHEAL: 0
  damage to plant, GALAP: 0
  damage to plant, HORVW: 0
  damage to plant, KCHSC: 0
  damage to plant, LOLPE: 10
  damage to plant, POAAN: 0
  damage to plant, POLCO: 0
  damage to plant, SINAR: 0
  damage to plant, STEME: 0
  damage to plant, VERPE: 0
Rate 130, 20 DAA
  damage to plant, ALOMY: 0
  damage to plant, AVEFA: 0
  damage to plant, BEAVA: 0
  damage to plant, BROTE: 10
  damage to plant, BRSNN: 0
  damage to plant, CHEAL: 0
  damage to plant, GALAP: 0
  damage to plant, HORVW: 0
  damage to plant, KCHSC: 0
  damage to plant, LOLPE: 30
  damage to plant, POAAN: 10
  damage to plant, POLCO: 20
  damage to plant, SINAR: 0
  damage to plant, STEME: 0
  damage to plant, VERPE: 0
Rate 250, 20 DAA
  damage to plant, ALOMY: 20
  damage to plant, AVEFA: 0
  damage to plant, BEAVA: 0
  damage to plant, BROTE: 20
  damage to plant, BRSNN: 10
  damage to plant, CHEAL: 0
  damage to plant, GALAP: 0
  damage to plant, HORVW: 10
  damage to plant, KCHSC: 0
  damage to plant, LOLPE: 60
  damage to plant, POAAN: 50
  damage to plant, POLCO: 20
  damage to plant, SINAR: 0
  damage to plant, STEME: 0
  damage to plant, VERPE: 0
Rate 500, 20 DAA
  damage to plant, ALOMY: 40
  damage to plant, AVEFA: 10
  damage to plant, BEAVA: 10
  damage to plant, BROTE: 20
  damage to plant, BRSNN: 20
  damage to plant, CHEAL: 0
  damage to plant, GALAP: 0
  damage to plant, HORVW: 20
  damage to plant, KCHSC: 0
  damage to plant, LOLPE: 70
  damage to plant, POAAN: 90
  damage to plant, POLCO: 60
  damage to plant, SINAR: 0
  damage to plant, STEME: 60
  damage to plant, VERPE: 0
